The assay relates to T1, Aat1.
T1 construct: full length, 6x-His-tag in pET-30a(+) (EcoRI/HindIII), E. coli Rosetta-gami 2(DE3)pLysS, Ni-NTA purified
As to the kind of experiment: UHPLC product quantification at […] nm, Michaelis-Menten fit. The conditions noted are these: 100 mM potassium phosphate pH 8.0, 30 °C. The assay is classed as biochemical, Zea mays.

Where [1] appears, read: acyl donor, 120 µM cyanidin 3-O-glucoside, donor 5-30 µM.
The mark [2] stands for this setting: 60 µM malonyl-CoA, substrate 5-120 µM.

Results on six compounds are retold here after publication PMC8037723, “Functional Characterization of an Anthocyanin Dimalonyltransferase in Maize” (Molecules, 2021).

As a reminder, the Km is the concentration of substrate that gives half-maximal velocity.

For `CC(C)(COP(=O)(O)OP(=O)(O)OC[C@H]1O[C@@H](n2cnc3c(N)ncnc32)[C@H](O)[C@@H]1OP(=O)(O)O)[C@@H](O)C(=O)NCCC(=O)NCCSC(=O)CCC(=O)O` [Succinyl-CoA], under setting [1], the Km was 60.09 ± 0.02 µM. Take `OC[C@H]1O[C@@H](Oc2cc3c(O)cc(O)cc3[o+]c2-c2ccc(O)cc2)[C@H](O)[C@@H](O)[C@@H]1O` [Pelargonidin 3-O-Glucoside]: under setting [2], the Km was determined as 8.92 ± 0.41 µM. Turning to `O=C(O)CC(=O)OC[C@H]1O[C@@H](Oc2cc3c(O)cc(O)cc3[o+]c2-c2ccc(O)c(O)c2)[C@H](O)[C@@H](O)[C@@H]1O` [compound 2, Cyanidin 3-O-6”-Malonylglucoside], the Km (60 µM malonyl-CoA, substrate 2.5-30 µM, semi-preparative fraction of 91.95% purity) turned out to be 1.33 ± 3.97 µM. Take `OC[C@H]1O[C@@H](Oc2cc3c(O)cc(O)cc3[o+]c2-c2ccc(O)c(O)c2)[C@H](O)[C@@H](O)[C@@H]1O` [compound 1, Cyanidin 3-O-Glucoside]: the Km under setting [2] stood at 13.1 ± 0.23 µM.

For the compound `CC(C)(COP(=O)(O)OP(=O)(O)OC[C@H]1O[C@@H](n2cnc3c(N)ncnc32)[C@H](O)[C@@H]1OP(=O)(O)O)[C@@H](O)C(=O)NCCC(=O)NCCSC(=O)CC(=O)O` [Malonyl-CoA], the Michaelis-Menten constant (Km) under setting [1] is 40.12 ± 0.04 µM. Consider `COc1cc(-c2[o+]c3cc(O)cc(O)c3cc2O[C@@H]2O[C@H](CO)[C@@H](O)[C@H](O)[C@H]2O)ccc1O` [Peonidin 3-O-Glucoside], for which the Km under setting [2] worked out at 5.14 ± 0.93 µM.
